In ChEMBL document CHEMBL1132863, “Antioxidant function of phenethyl-5-bromo-pyridyl thiourea compounds with potent anti-HIV activity” (Bioorg Med Chem Lett, 2000):

Columns and labels:
[1] = Antioxidant activity was evaluated by measuring the inhibition of oxidation of ABTS to ABTS+ by metmyoglobin in the presence of H2O2.; assay type: functional
[2] = molecular target: Human immunodeficiency virus type 1 reverse transcriptase (Human immunodeficiency virus 1, UniProt Q72547); assay: Inhibition of recombinant HIV-1 reverse transcriptase
[3] = test system: NALM-6; assay: The compound was evaluated for percent reduction of H2O2-induced H2DCFDA fluorescence in NALM-6-B-cells.; assay type: functional, Homo sapiens; set-up: concentration or dose not given beside the values
[4] = test system: CCRF-CEM; assay: The compound was evaluated for percent reduction of H2O2-induced H2DCFDA fluorescence in human CEM T-cells.; assay type: functional; set-up: concentration or dose not given beside the values

Molecule | EC50 [1] | IC50 [2] | Reduction [3] | Reduction [4]
CS/C(=N\CCc1ccccc1Cl)Nc1ccc(Br)cn1 | > 1000 µM | > 100 µM |  | 
COc1ccc(CC/N=C(\S)Nc2ccc(Br)cn2)cc1 | 176 µM | 0.9 µM | 0% | 21.4%
Clc1ccccc1CC/N=C(/Nc1ccc(Br)cn1)SCc1ccccc1 | > 1000 µM | > 100 µM |  | 
COc1cccc(CC/N=C(\S)Nc2ccc(Br)cn2)c1 | 90 µM | 0.4 µM | 30.4% | 19.7%
COc1ccc(OC)c(CC/N=C(/Nc2ccc(Br)cn2)SCc2ccccc2)c1 | > 1000 µM | > 100 µM |  | 
Fc1ccccc1CC/N=C(/Nc1ccc(Br)cn1)SCc1ccccc1 | > 1000 µM | > 100 µM |  | 
COc1ccc(OC)c(CCNC(=S)Nc2ccc(Br)cn2)c1 | 89 µM |  | 11.8% | 29.4%
Fc1ccc(CC/N=C(\S)Nc2ccc(Br)cn2)cc1 | 89 µM |  | 2% | 13%
Fc1ccccc1CC/N=C(\S)Nc1ccc(Br)cn1 | 109 µM |  |  | 47%
S=C(NCCc1ccccc1)Nc1ccc(Br)cn1 | 98 µM | 1.3 µM | 37.1% | 32.1%
COc1ccccc1CC/N=C(\S)Nc1ccc(Br)cn1 | 79 µM | 1 µM | 94.2% | 72.3%
Fc1cccc(CC/N=C(\S)Nc2ccc(Br)cn2)c1 | 100 µM |  |  | 45%
S=C(NCCc1ccccc1Cl)Nc1ccc(Br)cn1 | 75 µM |  | 32% | 56.3%
CCCOC(=O)c1cc(O)c(O)c(O)c1 [PROPYL GALLATE] | 84 µM |  |  | 
Cc1cn([C@H]2C[C@H](N=[N+]=[N-])[C@@H](CO)O2)c(=O)[nH]c1=O [ZIDOVUDINE] | > 1000 µM | > 100 µM |  | 
VITAMIN E | 377 µM |  |  | 
